# Experimental data published in patent publication US20190167569A1, “ENHANCED HERBAL EXTRACTION AND TRANSDERMAL DELIVERY” (priority 2016, published 2019).
# Read-outs that look alike come from different tables or passages of the source.
# Columns and labels:
# [1] = type: physicochemical
# Method: 100% of the carvacrol present in soapwort extract solution was released at the end of 40 minutes whereas about 90% of carvacrol present in licorice extract solution at the end of 40 minutes. When the solubilities were compared, it was observed that 0.5% of thyme oil was clearly dissolved in soapwort water extract and maximum 2% of thyme oil could be homogenously dispersed in soapwort. The maximum amount of thyme oil dissolved in licorice was 0.5%. Absorbance results clearly indicate that soapwort water extract has higher potential to dissolve and diffuse carvacrol of Thyme essential oil than does licorice.
# [2] = Diffusion of carvacrol in thyme essential oil through Franz diffusion cells that mimic human skin (UV-VIS, 272 nm); type: in vitro ADME
# Method: The diffusion rates of carvacrol in thyme (Tymus vulgaris) essential oil through diffusion cells that mimic human skin were calculated and analyzed using UV-VIS spectrophotometry to measure carvacrol content. Franz diffusion cells from Permegeaer, USA, with 47 mm, 200 nm inert polycarbonate membrane filters, were used with 5 ml extract solution samples. […] The amount of carvacrol that passed through the filter was determined by absorbance graphics on a UV spectrophotometer (Agilent 8453). A standard calibration curve was determined for carvacrol and the absorbances were measured at 272 nm to determine the % concentrations released.
# The diffusion rates of carvacrol in thyme (Tymus vulgaris) essential oil (0.05 ml of thyme essential oil) dispersed in 1 ml of soapwort extract solution through diffusion cells that mimic human skin were calculated and analyzed using UV-VIS spectrophotometry to measure carvacrol content. Franz diffusion cells from Permegear, USA, with 47 mm, 200 nm inert polycarbonate membrane filters, were used with 5 ml extract solution samples. The speed of diffusion of different thyme extracts were calculated at 1, 3, 5, 7, 10, 20, 40 minutes (and up to 1 day of duration) at a rotational speed of 50 rpm to mimic a dermal application. The amount of carvacrol that passed through the filter was determined by absorbance graphics on a UV spectrophotometer (Agilent 8453). A standard calibration curve was determined for carvacrol and the absorbances were measured at 272 nm to determine the % concentrations released.
# The diffusion rates of carvacrol in thyme (Tymus vulgaris) essential oil (0.05 ml of thyme essential oil dispersed in 1 ml of licorice extract solution) through diffusion cells that mimic human skin were calculated and analyzed using UV-VIS spectrophotometry to measure carvacrol content. Franz diffusion cells from Permegeaer, USA, with 47 mm, 200 nm inert polycarbonate membrane filters, were used with 5 ml extract solution samples. The speed of diffusion of different thyme extracts were calculated at 1, 2, 3, 4, 7, 10, 20, 30, 40 minutes (and up to 1 day of duration) at a rotational speed of 50 rpm to mimic a dermal application. The amount of carvacrol that passed through the filter was determined by absorbance graphics on a UV spectrophotometer (Agilent 8453). A standard calibration curve was determined for carvacrol and the absorbances were measured at 272 nm to determine the % concentrations released.
# [3] = type: in vitro ADME
# Method: (§1) The diffusion rates of different rosemary extract solutions through diffusion cells that mimic human skin were calculated and analyzed using UV-VIS spectrophotometry to measure rosmarinic acid content. Franz diffusion cells from Permegear, USA, with 47 mm, 200 nm inert polycarbonate membrane filters, were used with 5 ml extract solution samples. The speed of diffusion of different rosemary extracts were calculated at 1, 2, 3, 4, 10, 20, 30, 60, 120, 360 minutes (and up to 1 day of duration) at a rotational speed of 50 rpm to mimic a dermal application. The amount of rosmarinic acid that passed through the filter was determined by absorbance graphics on a UV spectrophotometer (Agilent 8453). A standard calibration curve was determined for rosmarinic acid and the absorbances were measured at 323 nm to determine the % concentrations released.
# For a reference or baseline sample, a decoction of rosemary in water alone was prepared at a 1:5 ratio.
# A soapwort decoction (an extraction medium with a saponin content) was prepared in water at a 1:5 ratio. A consequent decoction of rosemary (i.e., a rosemary extract solution) was prepared in the mentioned soapwort decoction at a 1:5 ratio. […] Thus, the transdermal delivery of rosmarinic acid using the method of the present invention is much faster than classical water decoctions predominantly used in modern dermal or cosmetic formulations.
# as §1, with “5, 40” for “4, 10, 20, 30, 60, 120, 360”
# A soapwort decoction (an extraction medium with a saponin content) was prepared in water at a 1:5 ratio. A decoction of rosemary (i.e., a rosemary extract solution) was prepared in 5×distilled water. The mentioned soapwort decoction and the water decoction of the rosemary leaves were then mixed at a 1:1 ratio. The following diffusion values were measured for this mixture: 14% at minute 1, 49.4% at minute 3, and 100% at minute 5.
# The diffusion rates of rosemarinic acid in rosemary essential oil through diffusion cells that mimic human skin were calculated and analyzed using UV-VIS spectrophotometry to measure rosmarinic acid content. Franz diffusion cells from Permegear, USA, with 47 mm, 200 nm inert polycarbonate membrane filters, were used with 5 ml extract solution samples. The speed of diffusion of different rosemary extracts were calculated at 1, 2, 3, 4, 7, 10, 20, 40 minutes (and up to 1 day of duration) at a rotational speed of 50 rpm to mimic a dermal application. The amount of rosmarinic acid that passed through the filter was determined by absorbance graphics on a UV spectrophotometer (Agilent 8453). A standard calibration curve was determined for rosmarinic acid and the absorbances were measured at 323 nm to determine the % concentrations released.
molecule,measurement,setting,value
thyme oil,maximum amount homogenously dispersed in soapwort,[1],2%
Cc1ccc(C(C)C)cc1O [carvacrol],diffusion,"[2]; 0.05 ml thyme essential oil in 1 ml licorice extract solution, after 24 hours",100%
same,diffusion value,"[2]; 0.05 ml thyme essential oil in 1 ml licorice extract solution, minute 1",0%
same,diffusion value,"[2]; 0.05 ml thyme essential oil in 1 ml licorice extract solution, minute 2",3.98%
same,diffusion value,"[2]; 0.05 ml thyme essential oil in 1 ml licorice extract solution, minute 3",14.41%
same,diffusion value,"[2]; 0.05 ml thyme essential oil in 1 ml licorice extract solution, minute 4",32.98%
same,diffusion value,"[2]; 0.05 ml thyme essential oil in 1 ml licorice extract solution, minute 7",42.59%
same,diffusion value,"[2]; 0.05 ml thyme essential oil in 1 ml licorice extract solution, minute 10",56.35%
same,diffusion value,"[2]; 0.05 ml thyme essential oil in 1 ml licorice extract solution, minute 20",67.61%
same,diffusion value,"[2]; 0.05 ml thyme essential oil in 1 ml licorice extract solution, minute 30",77.73%
same,diffusion value,"[2]; 0.05 ml thyme essential oil in 1 ml soapwort extract solution, minute 1",8.20%
same,diffusion value,"[2]; 0.05 ml thyme essential oil in 1 ml soapwort extract solution, minute 3",26.43%
same,diffusion value,"[2]; 0.05 ml thyme essential oil in 1 ml soapwort extract solution, minute 5",44.75%
same,diffusion value,"[2]; 0.05 ml thyme essential oil in 1 ml soapwort extract solution, minute 7",66.29%
same,diffusion value,"[2]; 0.05 ml thyme essential oil in 1 ml soapwort extract solution, minute 10",77.15%
same,diffusion value,"[2]; 0.05 ml thyme essential oil in 1 ml soapwort extract solution, minute 20",91.39%
same,diffusion value,"[2]; 0.05 ml thyme essential oil in 1 ml soapwort extract solution, minute 40",100%
same,transdermal delivery (in words),[2]; thyme essential oil alone,negligible
same,carvacrol released,"[2]; thyme essential oil alone, end of 40 minutes",0%
same,absorbance values,"[2]; thyme essential oil alone, end of 48 hours",minimal
"O=C(/C=C/c1ccc(O)c(O)c1)O[C@H](Cc1ccc(O)c(O)c1)C(=O)O [Rosmarinic Acid, rosmarinic acid]",absorbance values,[3],minimal
same,fraction of the control sample diffusion time,[3],1/30
same,penetration rate relative to control sample (only water decoction of rosemary),[3],approximately 30 ×
same,transdermal delivery (in words),[3],negligible
same,rosemarinic acid released,[3]; 40 min,0%
same,rosmarinic acid content passed through the membrane,[3]; 150 min,100%
